Measurements as given in patent publication US20180280485A1, “THIORETINAMIDE COMPOSITIONS FOR THE APOPTOSIS OF MALIGNANT CELLS WHILE PREVENTING THE APOPTOSIS OF NORMAL CELLS AND RELATED METHODS” (priority 2017, published 2018).

Assays:
[1] = Toxicity in animal tests or human trials; assay type: in vivo; details: 7.5 mg/70 kg/day to 300 mg/70 kg/day
normal fibroblasts = details: in vitro; cited from earlier work
[2] = tested on: human adenocarcinoma cells; assay: Growth of cultured human adenocarcinoma cells (Example 7); assay type: cell-based; details: for cell growth (10^5): cell number day 4, 10^5 cells passaged day 0, no addition 7.4 ± 2.7; for cell growth (10^5) / cell growth (% of control): TR2Co/TR 30 mg/dL, DATS/NBS 1.0 mg/dL; for cell growth (% of control): day 4; for inhibition of growth of cultured human adenocarcinoma cells: each compound alone, Table 2
Procedure: Human adenocarcinoma cells were cultured in RPMI medium with added fetal bovine serum and antibiotics, as reported by McCully K S et al in Research Communications in Chemical Pathology and Pharmacology, 1992; 77: 125-128 and reviewed by Ariga T et al in Biofactors 2006; 26: 93-103. Equal numbers (10^5) of adenocarcinoma cells were trypsinized and passaged on day 0, and the cells were refed with media containing test compounds on days 1 and 3. Cell numbers were determined by trypsinization on day 4. Thioretinaco (TR2Co) and thioretinamide (TR) were synthesized, as previously described (McCully U.S. Pat. No. 4,618,685; McCully U.S. Pat. No. 4,925,931) and dissolved in absolute ethanol. Authentic diallyl trisulfide ([…]) and napabucasin (NBS) were solubilized in propylene glycol. Propylene glycol (PG) was added to the ethanol solutions of the test compounds, the ethanol was evaporated under reduced pressure at 37° C., and the resulting solutions in propylene glycol were added to the culture media.

[3] = tested on: human pancreatic adenocarcinoma cells; details: in vitro, cited from earlier work; for growth of cells: without cellular degeneration
[4] = tested on: Normal control cell lines; details: versus human leukemia and myeloma cell lines; cited from earlier work
Caenorhabtidis elegans = details: exposure to diallyl trisulfide; cited from earlier work
[5] = tested on: human colon carcinoma cells; details: in vitro; read-out: inhibitory concentration (IC50) against proliferation; cited from earlier work

Compound	toxicity (weight loss, nausea, impairment of liver function, headache, skin lesions) [1]	growth and lactate production (normal fibroblasts)	cell growth (10^5) [2]	cell growth (% of control) [2]	inhibition of growth of cultured human adenocarcinoma cells [2]	growth of cells [3]	lactate production [3]	increase in concentration required to produce apoptosis and growth inhibition in normal control cell lines [4] [fold]	increase of lifespan (Caenorhabtidis elegans)	IC50 [5] [µM]
CC1=C(/C=C/C(C)=C/C=C/C(C)=C/C(=O)NC2CCSC2=O)C(C)(C)CCC1 (centres unmarked) [TR, N-homocysteine thiolactonyl retinamide]	no evidence of toxicity	unaffected	1.4 ± 0.50 10^5	19 % of control	significantly inhibit growth	inhibited	increased			
Cc1cc2c(o1)C(=O)c1ccccc1C2=O [FHQ3, 2-methyl-naphtho[2,3-b]furan-4,9 dione]								10		
CC1=C(/C=C/C(C)=C/C=C/C(C)=C/CO)C(C)(C)CCC1 [retinol, reference compound]	no evidence of toxicity									
O=C(O)Cc1cc2c(o1)C(=O)c1ccccc1C2=O [NBS, 2-carboxymethyl-naphtho[2,3-b]furan-4,9-dione, reference compound]			2.3 ± 0.52 10^5	28 % of control	significantly inhibit growth					
N-homocysteine thiolactonyl retinamido cobalamin [TR2Co]		unaffected	2.5 ± 0.82 10^5	33 % of control	significantly inhibit growth	inhibited	increased			
C=CCSSSCC=C [DATS, diallyl trisulfide, reference compound]			2.7 ± 0.57 10^5	36 % of control	significantly inhibit growth				approximately 12%	5
